Read-outs that look alike come from different tables or passages of the source.
What was measured:
[1] = Circulating metabolites measured in plasma in clinical studies; assay type: in vivo, human; conditions: all studies
[2] = doses studied 20–240 mg; cited from earlier work
[3] = cited from earlier work
P-glycoprotein (P-gp) = P-glycoprotein (P-gp) (Homo sapiens, UniProt P08183); experiment: In vitro efflux transporter substrate study, P-gp; assay type: in vitro ADME
CYP2C8 = biological target: T1, CYP2C8 (Homo sapiens, UniProt P10632); experiment: CYP2C8 reversible; assay type: in vitro ADME
T1 sequence (P10632 1-490): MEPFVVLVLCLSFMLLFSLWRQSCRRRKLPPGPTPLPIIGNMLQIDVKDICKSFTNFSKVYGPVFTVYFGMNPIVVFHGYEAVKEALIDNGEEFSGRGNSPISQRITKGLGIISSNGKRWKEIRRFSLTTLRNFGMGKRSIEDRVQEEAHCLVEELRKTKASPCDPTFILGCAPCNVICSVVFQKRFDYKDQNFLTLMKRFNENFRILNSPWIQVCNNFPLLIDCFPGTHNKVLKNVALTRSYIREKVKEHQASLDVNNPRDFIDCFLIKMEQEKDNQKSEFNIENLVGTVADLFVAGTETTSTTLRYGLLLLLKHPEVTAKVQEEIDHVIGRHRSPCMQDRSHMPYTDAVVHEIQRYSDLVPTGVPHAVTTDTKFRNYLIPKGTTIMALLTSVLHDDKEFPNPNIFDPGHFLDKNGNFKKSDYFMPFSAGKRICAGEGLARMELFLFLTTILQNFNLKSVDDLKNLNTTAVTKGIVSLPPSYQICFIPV

CYP2E1 = CYP2E1 contribution to metabolism and retrograde intrinsic clearance; assay type: in vitro ADME, human; conditions: retrograde approach
[4] = assay type: in vivo; conditions: human, plasma, oral, 80 mg
CYP3A4 = CYP3A4 contribution to metabolism and retrograde intrinsic clearance; assay type: in vitro ADME, human; conditions: retrograde approach
CYP3A5 = CYP3A5 contribution to metabolism and retrograde intrinsic clearance; assay type: in vitro ADME, human; conditions: retrograde approach
BCRP [5] = biological target: T2, BCRP (Homo sapiens, UniProt Q9UNQ0); experiment: BCRP inhibition, basic static model; assay type: in vitro ADME
T2 sequence (Q9UNQ0 1-655): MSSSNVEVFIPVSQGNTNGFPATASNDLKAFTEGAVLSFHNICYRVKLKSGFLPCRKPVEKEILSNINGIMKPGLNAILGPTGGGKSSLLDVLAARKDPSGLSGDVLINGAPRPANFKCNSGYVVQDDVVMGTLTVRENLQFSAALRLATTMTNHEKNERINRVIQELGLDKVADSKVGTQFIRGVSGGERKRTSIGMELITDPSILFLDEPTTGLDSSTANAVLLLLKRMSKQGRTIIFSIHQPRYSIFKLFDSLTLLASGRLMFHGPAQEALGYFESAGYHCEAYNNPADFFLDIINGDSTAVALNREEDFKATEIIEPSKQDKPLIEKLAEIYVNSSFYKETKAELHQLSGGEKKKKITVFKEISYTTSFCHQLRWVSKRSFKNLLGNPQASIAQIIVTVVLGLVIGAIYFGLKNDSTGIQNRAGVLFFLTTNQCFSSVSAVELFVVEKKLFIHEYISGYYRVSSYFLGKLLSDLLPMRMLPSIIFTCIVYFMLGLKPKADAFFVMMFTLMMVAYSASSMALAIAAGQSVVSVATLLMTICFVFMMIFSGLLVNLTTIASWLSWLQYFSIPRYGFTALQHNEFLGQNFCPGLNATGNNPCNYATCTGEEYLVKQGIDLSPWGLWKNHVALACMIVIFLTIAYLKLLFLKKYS

BCRP [6] = biological target: T2, BCRP; experiment: In vitro efflux transporter substrate study, BCRP; assay type: in vitro ADME
[7] = Fraction unbound in microsomal incubation; assay type: in vitro ADME; conditions: microsomes (microsomal incubation)
CYP3A4/5 [8] = experiment: CYP3A4/5 reversible; assay type: in vitro ADME; conditions: human
OATP1B1 = biological target: T3, OATP1B1 (Homo sapiens, UniProt Q9Y6L6); experiment: OATP1B1 inhibition, basic static model; assay type: in vitro ADME
T3 sequence (Q9Y6L6 1-691): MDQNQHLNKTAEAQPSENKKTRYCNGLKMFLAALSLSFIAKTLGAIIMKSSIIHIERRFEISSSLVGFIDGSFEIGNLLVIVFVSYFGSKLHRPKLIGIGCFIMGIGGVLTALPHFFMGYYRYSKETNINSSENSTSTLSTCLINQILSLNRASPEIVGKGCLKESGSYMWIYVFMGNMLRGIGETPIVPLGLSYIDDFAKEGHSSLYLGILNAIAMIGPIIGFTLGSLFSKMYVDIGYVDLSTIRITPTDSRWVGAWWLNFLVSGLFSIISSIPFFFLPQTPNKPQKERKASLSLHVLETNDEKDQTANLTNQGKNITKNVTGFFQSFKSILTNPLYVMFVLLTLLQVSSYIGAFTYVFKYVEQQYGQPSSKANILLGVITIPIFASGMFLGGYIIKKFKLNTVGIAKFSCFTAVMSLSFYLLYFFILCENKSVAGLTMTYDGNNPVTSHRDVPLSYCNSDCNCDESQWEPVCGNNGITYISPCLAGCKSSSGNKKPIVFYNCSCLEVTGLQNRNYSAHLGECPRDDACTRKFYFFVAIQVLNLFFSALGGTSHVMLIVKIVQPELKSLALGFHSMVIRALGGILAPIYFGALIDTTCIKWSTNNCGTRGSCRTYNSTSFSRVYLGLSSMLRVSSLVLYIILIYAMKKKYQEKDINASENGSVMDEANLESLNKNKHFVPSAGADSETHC

[9] = multiple doses 80 mg once daily, no inducer
CYP2C9 = CYP2C9 contribution to metabolism and retrograde intrinsic clearance; assay type: in vitro ADME, human; conditions: retrograde approach
CYP1A2 = CYP1A2 contribution to metabolism and retrograde intrinsic clearance; assay type: in vitro ADME, human; conditions: retrograde approach
CYP2A6 = CYP2A6 contribution to metabolism and retrograde intrinsic clearance; assay type: in vitro ADME, human; conditions: retrograde approach
CYP3A4/5 [10] = conditions: in vitro data; cited from earlier work

P-glycoprotein (P-gp), sequence (P08183 whole entry): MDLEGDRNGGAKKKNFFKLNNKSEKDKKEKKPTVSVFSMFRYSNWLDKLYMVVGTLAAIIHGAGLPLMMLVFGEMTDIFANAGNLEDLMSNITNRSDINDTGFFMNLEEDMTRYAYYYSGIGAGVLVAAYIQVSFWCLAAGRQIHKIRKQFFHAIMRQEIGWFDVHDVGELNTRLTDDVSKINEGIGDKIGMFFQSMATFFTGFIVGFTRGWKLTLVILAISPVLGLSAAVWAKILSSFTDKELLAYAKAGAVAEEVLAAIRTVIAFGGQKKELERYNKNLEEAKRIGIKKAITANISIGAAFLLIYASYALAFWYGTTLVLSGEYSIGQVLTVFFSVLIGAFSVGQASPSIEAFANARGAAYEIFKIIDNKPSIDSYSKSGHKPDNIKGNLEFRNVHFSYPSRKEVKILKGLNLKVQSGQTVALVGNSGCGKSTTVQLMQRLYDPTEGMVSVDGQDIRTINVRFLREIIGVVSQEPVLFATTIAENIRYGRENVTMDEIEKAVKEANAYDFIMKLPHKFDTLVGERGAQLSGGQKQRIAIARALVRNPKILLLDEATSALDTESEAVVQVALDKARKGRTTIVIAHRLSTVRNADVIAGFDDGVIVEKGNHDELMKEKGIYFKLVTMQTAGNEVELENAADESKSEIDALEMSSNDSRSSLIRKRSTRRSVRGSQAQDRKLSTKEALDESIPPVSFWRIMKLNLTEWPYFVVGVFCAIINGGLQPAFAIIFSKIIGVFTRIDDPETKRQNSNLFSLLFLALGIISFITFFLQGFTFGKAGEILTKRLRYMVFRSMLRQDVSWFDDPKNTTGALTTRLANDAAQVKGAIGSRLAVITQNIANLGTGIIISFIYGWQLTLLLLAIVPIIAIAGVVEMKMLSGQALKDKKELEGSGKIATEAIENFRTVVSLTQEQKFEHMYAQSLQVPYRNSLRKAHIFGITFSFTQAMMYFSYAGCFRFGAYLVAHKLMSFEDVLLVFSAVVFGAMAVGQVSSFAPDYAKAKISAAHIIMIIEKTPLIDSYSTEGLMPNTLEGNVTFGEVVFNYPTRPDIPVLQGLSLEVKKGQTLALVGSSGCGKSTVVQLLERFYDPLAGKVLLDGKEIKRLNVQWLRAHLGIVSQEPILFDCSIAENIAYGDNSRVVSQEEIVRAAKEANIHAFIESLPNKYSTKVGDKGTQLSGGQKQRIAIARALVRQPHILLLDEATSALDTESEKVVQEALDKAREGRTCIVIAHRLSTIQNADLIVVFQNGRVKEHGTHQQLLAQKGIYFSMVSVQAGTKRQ

SMILES: C=CC(=O)Nc1cc(Nc2nccc(-c3cn(C)c4ccccc34)n2)c(OC)cc1N(C)CCNC [AZ7550]
- contribution of metabolite to total drug-related exposure [1]: < 10%

SMILES: C=CC(=O)Nc1cc(Nc2nccc(-c3cn(C)c4ccccc34)n2)c(OC)cc1N(C)CCN(C)C [Osimertinib]
- maximum tolerated dose [2]: no maximum tolerated dose was reached
- median (range) Tmax [3]: 6 (3–24) hours
- median time of maximum plasma concentration (Tmax) ([3]; oncology patients): 6 h
- oral clearance ([3]; oncology patients): 14.2 L/h
- volume of distribution ([3]; oncology patients): around 997 L
- increase of Cmax and AUC with dose ([3]; single oral doses of 20 to 240 mg): dose proportional
- substrate for P-gp (P-glycoprotein (P-gp)): substrate
- Ki (CYP2C8): 11.4 µM
- CYP2E1 CLint (CYP2E1): 0.111 µL/min/pmol of isoform
- AUC [4]: 11.5 µM·h
- CYP3A4 CLint (CYP3A4): 0.731 µL/min/pmol of isoform
- CYP3A5 CLint (CYP3A5): 0.210 µL/min/pmol of isoform
- Ki (BCRP [5]): 2 µM
- BCRP Potential for DDI (BCRP [5]; basic static model): likely
- substrate for BCRP (BCRP [6]): substrate
- fraction unbound [7]: 0.0261
- Ki (CYP3A4/5 [8]): 2.55 µM
- Ki (OATP1B1): 22 µM
- Ki (OATP1B1; human): 52.5 µM
- Css,max Geo.mean (range) [%CV], observed [9]: 545 (258 to 1,220) nM
- CYP2C9 CLint (CYP2C9): 0.479 µL/min/pmol of isoform
- CYP1A2 CLint (CYP1A2): 0.520 µL/min/pmol of isoform
- CYP2A6 CLint (CYP2A6): 1.749 µL/min/pmol of isoform
- fraction metabolized (fm) CYP3A (CYP3A4/5 [10]): 54%

Reference: PMC5980577 (CPT: Pharmacometrics & Systems Pharmacology, 2018)
